pEC50: −log10 of the molar value. Where a name gives a salt, the structure may show the parent alone. Read-outs that look alike come from different tables or passages of the source.
Columns and labels:
[1] = molecular target: T1, BIR3-mediated Caspase-9 inhibition (UniProt Q9R0I6); experiment: Caspase-9 rescue assay (relief of BIR3-mediated Caspase-9 inhibition); format: biochemical, human Caspase-9; Rat or Chicken BIR3; conditions: average EC50, substrate Ac-LEHD-amc, pH 6.5
T1 construct: Nothing is printed for this assay
Method: Additionally the compounds and compositions can be evaluated for their ability to achieve relief of BIR3-mediated Caspase-9 inhibition by measuring Caspase-9 reactivation. The fluorogenic substrate Ac-LEHD-7-amido-4-methylcoumarin is used in these methods. EC50 values of tested BIR3 inhibitors or Caspase-9 rescuers is calculated from the percentage of Caspase-9 reactivation in the mixtures containing serially diluted concentrations of tested compound. Typically, 10-point curves are generated for such EC50 determination.
Relief of BIR3-mediated Caspase-9 inhibition by BIR3 inhibitors was assayed by measuring Caspase-9 reactivation using the fluorogenic substrate Ac-LEHD-7-amido-4-methylcoumarin. A truncated form of human Caspase-9 that lacks the N-terminal Caspase recruitment domain (EPro-Caspase-9 or p35/p12) was used in the assay. This form of the enzyme has the full catalytic activity and the same substrate specificity as the full-length protein in the Apaf-1/Cytochrome C/dATP/Caspase-9 reconstituted system. Rat or Chicken BIR3 was used in this assay. […] This mixture was incubated for 40 min to allow equilibration at 25° C., and the assay progression was subsequently followed by monitoring the formation of fluorescent 7-amido-4-methylcoumarin over time at 460 nm using an excitation wavelength of 360 nm. […] EC50 values of tested BIR3 inhibitors or Caspase-9 rescuers were calculated from the percentage of Caspase-9 reactivation in the mixtures containing serially diluted concentrations of tested compound.

BIR3 domain of rat XIAP = BIR3 domain of rat XIAP (Rattus norvegicus, UniProt Q9R0I6); experiment: Fluorescence polarization assay, binding to BIR3 from rat XIAP
Chain of BIR3 domain of rat XIAP (Q9R0I6 241-355): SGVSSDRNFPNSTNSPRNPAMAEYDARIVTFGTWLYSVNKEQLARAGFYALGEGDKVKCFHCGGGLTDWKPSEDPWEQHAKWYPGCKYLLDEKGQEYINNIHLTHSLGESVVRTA
Method: In fluorescence polarization assays a fluorescent probe is used. The binding affinity of compounds to BIR3 is measured by competitive displacement of a fluorescent probe using fluorescence polarization anisotropy. […] In other embodiments, the probe used is 6-(6-Hydroxy-3-oxo-3H-xanthen-9-yl)-N-(5-(2-methylamino-propionylamino)-6-oxo-6-[4-(1,2,3,4-tetrahydro-naphthalen-1-ylcarbamoyl)-thiazolidin-3-yl]-hexyl)-isophthalamic acid.
The binding affinity of compounds provided herein for rat BIR3 was measured by competitive displacement of a fluorescent probe using fluorescence polarization anisotropy. […] Control conditions were set up on each plate and include free probe 1 alone (5 nM), fully bound probe (5 μM BIR3+5 nM probe 1) and binding buffer blank. The-EC50 of binding was computed from a 4-parameter fit of the measured anisotropies using the SoftMax Pro 4.6 software package (Molecular Dynamics, Sunnyvale, Calif.).
Alternatively, probe 1 was substituted with probe 2: 6-(6-Hydroxy-3-oxo-3H-xanthen-9-yl)-N-{5-(2-methylamino-propionylamino)-6-oxo-6-[4-(1,2,3,4-tetrahydro-naphthalen-1-ylcarbamoyl)-thiazolidin-3-yl]-hexyl}-isophthalamic acid, for rat BIR3 and the concentrations of assay components changed. […] Controls were adjusted accordingly.

SMILES | pEC50 [1] | pEC50 (BIR3 domain of rat XIAP) | pEC50 (BIR3 domain of rat XIAP; read-out: EC50 for binding to BIR3, average EC50, BIR3 domain of rat XIAP, competitive displacement of fluorescent probe)
CC(C)CNC(C)C(=O)NC(C(=O)N1CCCC1C(=O)NC1CCCc2ccccc21)C(C)(C)C (stereo not drawn) [1-[2-(2-Isobutylamino-propionylamino)-3,3-dimethyl-butyryl]-pyrrolidine-2-carboxylic acid (1,2,3,4-tetrahydro-naphthalen-1-yl)-amide] | 5.00 to 6.00 | > 6.00 | 
CNC(C)C(=O)NC(C(=O)NC(CCCCNS(=O)(=O)C(F)(F)F)C(=O)NC1CCCc2ccccc21)C(C)C (stereo not drawn) [2-[3-Methyl-2-(2-methylamino-propionylamino)-butyrylamino]-6-trifluoromethanesulfonylamino-hexanoic acid (1,2,3,4-tetrahydro-naphthalen-1-yl)-amide] | < 5.00 | > 6.00 | 
CN[C@@H](C)C(=O)N[C@H]1CCCN2CC[C@@H](C(=O)N[C@@H]3CCCc4ccccc43)N2C1=O [8-(2-Methylamino-propionylamino)-9-oxo-hexahydro-pyrazolo[1,2-a][1,2]diazepine-1-carboxylic acid (1,2,3,4-tetrahydro-naphthalen-1-yl)-amide] | 5.00 to 6.00 | > 6.00 | 
CCCCCN1C(=O)CCC(NC(=O)C(C)NC)C(=O)N1CC(=O)NC1CCCc2ccccc21 (stereo not drawn) [N-{3,7-Dioxo-1-pentyl-2-[(1,2,3,4-tetrahydro-naphthalen-1-ylcarbamoyl)-methyl]-[1,2]diazepan-4-yl}-2-methylamino-propionamide] | < 5.00 | 5.00 to 6.00 | 
CN[C@@H](C)C(=O)N[C@H](C(=O)N(C)[C@@H](CCCNC(=N)NS(=O)(=O)c1ccc(C)cc1)C(=O)N[C@@H]1CCCc2ccccc21)C(C)C [(S)-2-((S)-N,3-dimethyl-2-((S)-2-(methylamino)propanamido)butanamido)-N-((R)-1,2,3,4-tetrahydronaphthalen-1-yl)-5-(3-Htosylguanidino)pentanamide; 2,2,2-trifluoroacetic acid salt] | > 6.00 |  | > 6.00
CNC(C)C(=O)NC(C(=O)NC(CCCCNC(C)=O)C(=O)NC1CCCc2ccccc21)C(C)C (stereo not drawn) [6-Acetylamino-2-[3-methyl-2-(2-methylamino-propionylamino)-butyrylamino]-hexanoic acid (1,2,3,4-tetrahydro-naphthalen-1-yl)-amide] | 5.00 to 6.00 | > 6.00 | 
CNC(C)C(=O)NC(C(=O)N1CC2(CC1C(=O)NC1CCCc3ccccc31)SCCS2)C(C)C (stereo not drawn) [7-[3-Methyl-2-(2-methylamino-propionylamino)-butyryl]-1,4-dithia-7-aza-spiro[4.4]nonane-8-carboxylic acid (1,2,3,4-tetrahydro-naphthalen-1-yl)-amide] | 5.00 to 6.00 | > 6.00 | 
CNC(C)C(=O)NC(C(=O)NC(Cc1ccccc1)C(=O)NC1CCCc2ccccc21)C(C)C (stereo not drawn) [3-Methyl-2-(2-methylamino-propionylamino)-N-[2-phenyl-1-(1,2,3,4-tetrahydro-naphthalen-1-ylcarbamoyl)-ethyl]-butyramide] | < 5.00 | 5.00 to 6.00 | 
CNC(C)C(=O)NC(C(=O)N1CSCC1C(=O)NN(c1ccccc1)c1ccccc1)C(C)C (stereo not drawn) [N-{1-[4-(N′,N′-Diphenyl-hydrazinocarbonyl)-thiazolidine-3-carbonyl]-2-methyl-propyl}-2-methylamino-propionamide] | 5.00 to 6.00 | > 6.00 | 
CNC(C)C(=O)NC(C(=O)N(CCc1ccccc1)CC(=O)NC1CCCc2ccccc21)C(C)(C)C (stereo not drawn) [3,3-Dimethyl-2-(2-methylamino-propionylamino)-N-phenethyl-N-[(1,2,3,4-tetrahydro-naphthalen-1-ylcarbamoyl)-methyl]-butyramide TFA salt] | < 5.00 | 5.00 to 6.00 | 

More lines, main results first:

pEC50 [1] | pEC50 (BIR3 domain of rat XIAP) | SMILES | pEC50 (BIR3 domain of rat XIAP; read-out: EC50 for binding to BIR3, average EC50, BIR3 domain of rat XIAP, competitive displacement of fluorescent probe)
5.00 to 6.00 | > 6.00 | CNC(C)C(=O)NC(C(=O)N(C)C(CCCCNC(=O)OCc1ccccc1)C(=O)NC1CCCc2ccccc21)C(C)C (stereo not drawn) [[5-{Methyl-[3-methyl-2-(2-methylamino-propionylamino)-butyryl]-amino}-5-(1,2,3,4-tetrahydro-naphthalen-1-ylcarbamoyl)-pentyl]-carbamic acid benzyl ester] | 
> 6.00 | > 6.00 | CN[C@@H](C)C(=O)N[C@H]1CCCC2CC[C@@H](C(=O)N[C@@H]3CCCc4ccccc43)N2C1=O (stereo partly drawn) [6-(2-Methylamino-propionylamino)-5-oxo-octahydro-pyrrolo[1,2-a]azepine-3-carboxylic acid (1,2,3,4-tetrahydro-naphthalen-1-yl)-amide] | 
> 6.00 | > 6.00 | CNC(C)C(=O)NC(CCCCNC(=O)OCC1c2ccccc2-c2ccccc21)C(=O)N1CSCC1C(=O)NC1CCCc2ccccc21 (stereo not drawn) [{5-(2-Methylamino-propionylamino)-6-oxo-6-[4-(1,2,3,4-tetrahydro-naphthalen-1-ylcarbamoyl)-thiazolidin-3-yl]-hexyl}-carbamic acid 9H-fluoren-9-ylmethyl ester] | 
> 6.00 | > 6.00 | CNC(C)C(=O)NC(C(=O)NC(CCCCNS(=O)(=O)c1ccc(OC)cc1)C(=O)NC1CCCc2ccccc21)C(C)C (stereo not drawn) [6-(4-Methoxy-benzenesulfonylamino)-2-[3-methyl-2-(2-methylamino-propionylamino)-butyrylamino]-hexanoic acid (1,2,3,4-tetrahydro-naphthalen-1-yl)-amide] | 
> 6.00 | > 6.00 | CNC(C)C(=O)NC(C(=O)NC(CCCCNS(=O)(=O)Cc1ccccc1)C(=O)NC1CCCc2ccccc21)C(C)C (stereo not drawn) [2-[3-Methyl-2-(2-methylamino-propionylamino]-butyrylamino]-6-phenylmethanesulfonylamino-hexanoic acid (1,2,3,4-tetrahydro-naphthalen-1-yl)-amide] | 
> 6.00 | > 6.00 | CNC(C)C(=O)NC(C(=O)N1CSCC1C(=O)NC1CCc2ccccc21)C(C)C (stereo not drawn) [3-[3-Methyl-2-(2-methylamino-propionylamino)-butyryl]-thiazolidine-4-carboxylic acid indan-1-ylamide] | 
> 6.00 | > 6.00 | CNC(C)C(=O)NC(C(=O)NC(CCCCNC(=O)OCc1ccccc1Cl)C(=O)NC1CCCc2ccccc21)C(C)C (stereo not drawn) [[5-[3-Methyl-2-(2-methylamino-propionylamino)-butyrylamino]-5-(1,2,3,4-tetrahydro-naphthalen-1-ylcarbamoyl)-pentyl]-carbamic acid 2-chloro-benzyl ester] | 
> 6.00 | > 6.00 | CN[C@@H](C)C(=O)N[C@H](C(=O)N1COC[C@H]1C(=O)N[C@@H]1CCCc2ccccc21)C(C)C [3-[3-Methyl-2-(2-methylamino-propionylamino)-butyryl]-oxazolidine-4-carboxylic acid (1,2,3,4-tetrahydro-naphthalen-1-yl)-amide] | 
